Test results: patent US20220160714A1, “METHODS FOR TREATING COLORECTAL CANCER” (ICAHN SCHOOL OF MEDICINE AT MOUNT SINAI, priority 2019, published 2022)

Tested on: patient's personalized Drosophila model 006.1
Experiment: Trametinib combination drug screen (Table 4B, experimental pupae numbers)
Assay type: in vivo
Conditions: drug screened in combination with trametinib; for EP mean: mean of 8 replicates
Summary of the method: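 Experimental and control embryos (1:2 ratio) from the UAS-006.1/ago and apc RNAi byn-gal4 tub-gal80^ts cross, laid at 22 °C, dispensed onto drug-containing food, then shifted to 25 °C to induce transgene expression. Surviving experimental pupae counted per tube after 2 weeks; DMSO and Trametinib alone as controls.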

| SMILES | EP (raw experimental pupae numbers), replicate 1 | EP (raw experimental pupae numbers), replicate 2 | EP (raw experimental pupae numbers), replicate 3 | EP (raw experimental pupae numbers), replicate 4 | EP (raw experimental pupae numbers), replicate 5 | EP (raw experimental pupae numbers), replicate 6 | EP (raw experimental pupae numbers), replicate 7 | EP (raw experimental pupae numbers), replicate 8 | EP mean |
| --- | --- | --- | --- | --- | --- | --- | --- | --- | --- |
| O=C1CCC(N2C(=O)c3ccccc3C2=O)C(=O)N1 (stereo not drawn) [thalidomide] | 1 | 1 | 0 | 1 | 0 | 0 | 0 | 0 | 0.375 |
| CCCCCCCCCCCCCCCC[N+](C)(C)CCN(Cc1ccc(OC)cc1)c1ncccn1 [thonzonium bromide] | 0 | 0 | 1 | 0 | 2 | 1 | 1 | 3 | 1 |
| C[C@@H]1CCN(C(=O)CC#N)C[C@@H]1N(C)c1ncnc2[nH]ccc12 [tofacitinib] | 1 | 0 | 1 | 0 | 2 | 1 | 0 | 0 | 0.625 |
| CC1(C)O[C@@H]2[C@@H](CO[C@@]3(COS(N)(=O)=O)OC(C)(C)O[C@@H]23)O1 [topiramate] | 0 | 0 | 0 | 0 | 3 | 3 | 1 | 0 | 0.875 |
| CCOC(=O)N[C@@H]1CC[C@@H]2[C@@H](C1)C[C@H]1C(=O)O[C@H](C)[C@H]1[C@H]2/C=C/c1ccc(-c2cccc(F)c2)cn1 [vorapaxar] | 0 | 0 | 1 | 0 | 3 | 0 | 0 | 0 | 0.5 |
| NS(=O)(=O)Cc1noc2ccccc12 [zonisamide] | 0 | 2 | 0 | 1 | 3 | 1 | 1 | 0 | 1 |
